{
  "source": "patent US12011433B2",
  "about": "(UNIVERSITÁ DEGLI STUDI DI BARI “ALDO MORO”, priority 2016, dated 2024)",
  "key": {"[1]": {"experiment": "GALMOF0 chemical stability in buffers by HPLC", "assay_type": "physicochemical", "details": "pH 1, 3, 7.3 and 8, 37° C., till 60 min", "experimental": "HPLC analyses were performed to determine the chemical stability and the purity grade of GALMOF0 as a representative compound of the set.\nAminica column was used, CH3CN/10 mM Tris-HCl (pH=8) (15:85) was used as mobile phase, T=40° C.; λ=254 nm.\n200 μL of 2.5 mg/mL di GALMOF0 in CH3CN were added to 1800 μL of a buffer (pH=1, 3, 7.3 and 8). Each sample was kept stirred at 37° C. Buffer with pH=1 and 3, obtained with 0.1N HCl and 50 mM HEPES, was selected to simulate the chemical stability at gastric level, whereas pH=7.3 and 8, obtained by 50 mM TRIS-HCl, simulated its stability in the blood and gut, respectively.\nAt 15, 30, 60 min and 48 h, 300 μL of the sample were withdraw, diluted with 300 μL of CH3CN (final concentration=[…]) and tested by HPLC."}, "GLUT-1": {"test_system": "GLUT-1", "experiment": "Caco-2 monolayer efflux assay, Apparent Permeability (Papp), with or without GLUT-1 inhibitor phloretin", "assay_type": "in vitro ADME, Human", "details": "human", "experimental": "(§1) In a monolayer efflux assay, the Apparent Permeability (Papp) in both basolateral to apical [Papp(B→A)] and apical to basolateral [Papp(A→B)] directions was determined for each compound (FIG. 2). Human colonic adenocarcinoma cell line (Caco-2) presents a facilitated transport system at the apical and basolateral surface. Caco-2 cells express high levels of GLUT-1 that are localized to the basolateral membrane and transport glucose to the serosal side.\n(§2) The Papp(B→A) flux of each compound alone or in the presence of phloretin, a GLUT-1 inhibitor, has been determined. Since GLUT-1 is express in the basolateral compartment a high B→A flux means that the transport is GLUT-1 mediated because B→A flux represents the active transport.\n(§3) A→B flux, which represents the passive transport, has also been determined for each compound (Table 2)."}, "Caco-2 cells": {"test_system": "Caco-2 cells", "experiment": "Caco-2 monolayer efflux assay, Apparent Permeability (Papp), with or without GLUT-1 inhibitor phloretin", "assay_type": "in vitro ADME, Human", "experimental": "as §1, §2, §3"}, "COX-2 [2]": {"molecular_target": "COX-2 (Homo sapiens, UniProt P35354)", "sequence (P35354 18-604 limits assumed)": "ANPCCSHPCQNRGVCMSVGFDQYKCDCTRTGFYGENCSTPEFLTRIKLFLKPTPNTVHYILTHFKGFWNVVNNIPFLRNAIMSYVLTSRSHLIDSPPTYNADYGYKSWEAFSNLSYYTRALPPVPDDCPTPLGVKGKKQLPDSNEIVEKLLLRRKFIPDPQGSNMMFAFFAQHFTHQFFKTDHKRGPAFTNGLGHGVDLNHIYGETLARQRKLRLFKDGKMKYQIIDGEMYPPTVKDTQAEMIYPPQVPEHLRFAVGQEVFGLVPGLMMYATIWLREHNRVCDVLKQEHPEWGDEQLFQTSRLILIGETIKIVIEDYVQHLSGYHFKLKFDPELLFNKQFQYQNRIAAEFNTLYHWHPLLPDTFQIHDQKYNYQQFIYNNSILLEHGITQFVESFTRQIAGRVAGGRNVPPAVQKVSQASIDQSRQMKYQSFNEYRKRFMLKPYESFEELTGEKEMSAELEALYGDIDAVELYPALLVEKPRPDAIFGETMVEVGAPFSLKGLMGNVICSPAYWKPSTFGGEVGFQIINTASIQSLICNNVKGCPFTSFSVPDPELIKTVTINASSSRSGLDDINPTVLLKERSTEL", "experiment": "colorimetric COX Inhibitor screening Assay (peroxidase component, oxidized TMPD at 590 nm)", "assay_type": "biochemical", "experimental": "Human cyclooxygenase inhibitory activity was determined by a colorimetric COX Inhibitor screening Assay which measures the peroxidase component of the cyclooxygenases, monitoring the appearance of oxidized N,N,N′,N′-tetramethyl-p-phenylenediamine (TMPD) at 590 nm."}, "[3]": {"experiment": "GALMOF0 metabolic stability, incubation with rat liver microsomes", "assay_type": "in vitro ADME", "experimental": "GALMOF0 metabolic stability was determined through its incubation with rat liver microsomes and monitoring the disappearance of its chromatogram peak within 30 min.\nThe in vitro test was carried out in the presence of rat liver S9 fraction (Tebu-bio, Milan, Italy).\nBriefly, GALMOF0 (10 μM) in 100 mM of phosphate buffer (pH=7.4) was mixed with the NADPH regeneration system to a final concentration of 1.3 mM NADP^+, 3.3 mM glucose 6-phosphate and 0.4 U/ml glucose 6-phosphate dihydrogenase and 3.3 mM MgCl2. The experiment started with the addition of rat microsomes (1 mg/ml) that were incubated for 30 min at 37° C. The reaction was blocked by adding an equal volume of cold CH3CN. The samples were centrifuged at 4,600 rpm for 15 min at 4° C. The supernatant was separated and the organic phase analysed by HPLC in the same conditions used for the samples of the “chemical stability study”.\nThe residual GALMOF0 percentage after 30 min was calculated according the following equation: Residual GALMOF0(%) at 30 min=Cmicr+NADPH/Cmicr×100 where Cmicr+NADPH is the GALMOF0 concentration after the incubation with the microsomes and the NADPH regeneration system (FIG. 8); Cmicr is the GALMOF0 concentration after the incubation with only the microsomes (FIG. 9)."}, "BV2 microglial cells": {"test_system": "BV2 microglial cells", "experiment": "BV2 microglial cell viability, MTT reduction assay", "assay_type": "cell-based", "details": "24 h, P6 0.5 and 1 μM, mofezolac 0.1 and 0.5 μM, alone or with LPS", "experimental": "(§4) Cells were then incubated for different times at 37° C. with LPS, as pro-inflammatory stimulus. Experiments included cells grown in medium alone (control).\nCell viability of microglial cells was quantified using the MTT reduction assay. The cells (8×10^3/well) were grown in 96-well plates (Becton Dickinson Labware) in complete medium and treated with different concentration of COX inhibitors, in presence or absence of LPS. Untreated cells were used as a control. A PBS 1× solution of MTT (5 mg/mL) was prepared and added to the cell medium at a final concentration of 0.5 mg/mL. Cells were incubated for 4 h at 37° C. and 5% CO2 to allow the MTT metabolism. The formazan crystals formed (from MTT) into the cells were solubilized with DMSO (Sigma-Aldrich). The levels of MTT formazan were determined measuring the optical density at λ=560 nm and subtracting the background (λ=670 nm) with a Victor Multiplate Reader (Wallac). Optical density was directly correlated to cell quantity."}, "COX-1": {"molecular_target": "COX-1 (Mus musculus (Mouse), UniProt P22437)", "experiment": "COX-1 expression in LPS-treated BV2 microglial cells, western blotting", "assay_type": "cell-based", "details": "for COX-1 expression reduction: LPS-activated BV2 cells", "experimental": "as §4\n(§5) The tissue and cell culture lysates were vortexed for 15-20 s and, then, centrifuged at 12,800×g for 20 min. The protein concentration in the supernatant was spectrophotometrically determined by Bradford's protein assay (Bradford, 1976). Protein samples were diluted with sample buffer (0.5 M Tris-HCl pH=6.8, 10% glycerol, 10% (w/v) SDS, 5% 2-mercaptoethanol, 0.05% (w/v) bromophenol blue) and then boiled for 3 min. Proteins (25 μg/lane) and prestained standards (BioRad Laboratories, Hercules, CA, USA) were loaded on 7% or 12% SDS precast polyacrylamide gels (BioRad Laboratories).\nAfter electrophoresis, the resolved proteins were transferred from the gel to nitrocellulose membranes. A blotting buffer [20 mMTris/150 mM glycine, pH=8.0, 20% (v/v) methanol] was used for gel and membrane saturation and blotting. Then, membranes were incubated in the dark with 1 μg/mL mouse monoclonal antibody (MoAb) anti-COX-1 and rabbit polyclonal Ab anti-COX-2 (1:1000) (both from AbCam, Cambridge, UK), rabbit polyclonal Ab anti p-IkB-α (1:200), mouse polyclonal Ab anti β-actin (1:500) (all from Santa Cruz Biotechnology), mouse MoAb anti-glial fibrillary acidic protein (GFAP) (1:200) and mouse mAb anti-ionized calcium-binding adapter molecule-1 (Iba-1) (1:200) (both from Merck Millipore) overnight at 4° C. The membranes were washed with 0.1% Tween 20-PBS (for 20 min, 3 times) and then incubated with the secondary antibody diluted 1:2000 for 60 min. Bands were visualized by chemiluminescence detection (Invitrogen, Milan, Italy). The β-actin level was used as a protein loading control. For tissue analysis, obtained bands were normalized to the level of β-actin performed for each cerebral area tested. For cell cultures the bands were normalized to the β-actin level in each experimental condition."}, "PGE2": {"test_system": "PGE2", "experiment": "PGE2 release in LPS-stimulated BV2 microglial cells, competitive binding immunoassay", "assay_type": "cell-based", "details": "for PGE2 release (ng/ml) at 48 h: LPS-stimulated BV2 cells; for PGE2 production reduction: LPS-treated BV2 cells", "experimental": "Microglial cells were cultured in 6-well plates at a density of 3×10^6 cells/well. […] The cultures were maintained at 37° C. for 24 and 48 h in a humidified air containing a 5% CO2. PGE2 levels were determined in the supernatant using a competitive binding immunoassay (Cayman Chemical, Ann Arbor, MI, USA) following the manufacturer's instructions. Unstimulated cells were included as a control. PGE2 amount determination in the brain was performed in the tissue extracts, according to the manufacturer's instructions. The optical density was measured at λ=405-420 nm with precision microplate reader and the amount of PGE2 (ng/mL) was calculated using a PGE2 standard curve."}, "COX-2 [4]": {"molecular_target": "COX-2 (Mus musculus (Mouse), UniProt Q05769)", "experiment": "COX-2 expression in LPS-treated BV2 microglial cells, western blotting", "assay_type": "cell-based", "details": "LPS-stimulated BV2 cells", "experimental": "as §4, §5\nAfter electrophoresis, the resolved proteins were transferred from the gel to nitrocellulose membranes. A blotting buffer [20 mMTris/150 mM glycine, pH=8.0, 20% (v/v) methanol] was used for gel and membrane saturation and blotting. […]"}},
  "note": "Read-outs that look alike come from different tables or passages of the source.",
  "data": [
    {"smiles": "COc1ccc(-c2noc(CC(=O)OCC3OC(O)C(O)C(O)C3O)c2-c2ccc(OC)cc2)cc1", "note": "[GALMOF0, ((2S,3R,4S,6R)-3,4,5,6-tetrahydroxytetrahydro-2H-pyrano-2-yl-) methyl-(2-(3,4-di(4-metoxyphenyl)isoxazol-5-yl)acetate]", "values": [
      {"measurement": "chemical stability, chromatogram profile", "setting": "[1]", "value": "no variation of the chromatogram profile was observed"},
      {"measurement": "Papp A→B", "setting": "GLUT-1; compound alone, read-out: Papp A → B", "value": 38, "unit": "×10⁻⁶ cm/s"},
      {"measurement": "Papp B→A", "setting": "GLUT-1; compound alone, read-out: Papp B → A", "value": 87.5, "unit": "×10⁻⁶ cm/s"},
      {"measurement": "Papp A→B", "setting": "GLUT-1; with phloretin (GLUT-1 inhibitor), in Phloretin, read-out: Papp A → B, Phloretin", "value": 36.8, "unit": "×10⁻⁶ cm/s"},
      {"measurement": "Papp B→A", "setting": "GLUT-1; with phloretin (GLUT-1 inhibitor), in Phloretin, read-out: Papp B → A, Phloretin", "value": 61, "unit": "×10⁻⁶ cm/s"},
      {"measurement": "Papp B → A, Phloretin", "setting": "Caco-2 cells; in the presence of 100 mM Phloretin", "value": 61, "unit": "×10⁻⁶ cm/s"},
      {"measurement": "reduction of the basolateral to apical flux (Papp B→A) in the presence of phloretin", "setting": "Caco-2 cells; phloretin vs alone", "value": 30, "unit": "%"},
      {"measurement": "inhibition at 50 µM", "setting": "COX-2 [2]; at 50 μM, the highest concentration tested", "value": 87, "unit": "%"},
      {"measurement": "IC50", "setting": "COX-2 [2]; human cyclooxygenase", "value": 3.1, "unit": "µM"},
      {"measurement": "Cmicr, concentration after the incubation", "setting": "[3]; incubated with only the microsomes, 30 min", "value": 70.51, "unit": "mAU*s"},
      {"measurement": "Cmicr+NADPH, concentration after the incubation", "setting": "[3]; incubated with the microsomes and the NADPH regeneration system, 30 min", "value": 68.02, "unit": "mAU*s"},
      {"measurement": "residual GALMOF0 after 30 min of treatment with microsomes", "setting": "[3]; rat liver microsomes 1 mg/ml, NADPH regeneration system, 10 μM, 37° C.", "value": 96, "unit": "%"}
    ]},
    {"smiles": "Cc1onc(-c2ccc(Cl)o2)c1-c1ccccc1", "note": "[Compound P6, 3-(5-chlorofuran-2-yl)-5-methyl-4-phenylisoxazole]", "values": [
      {"measurement": "cell toxicity", "setting": "BV2 microglial cells", "value": "No cell toxicity"},
      {"measurement": "COX-1 expression levels", "setting": "COX-1; BV2 cells, 48 h of incubation with LPS, 1 h pre-treated", "value": "significantly reduced"},
      {"measurement": "COX-1 expression reduction", "setting": "COX-1; 0.5 μM", "value": 67, "unit": "%"},
      {"measurement": "COX-1 expression reduction", "setting": "COX-1; 1.0 μM", "value": 79, "unit": "%"},
      {"measurement": "PGE2 release (ng/ml) at 48 h", "setting": "PGE2; 0.5 μM inhibitor + LPS", "value": 0.21, "unit": "ng/mL"},
      {"measurement": "PGE2 release (ng/ml) at 48 h", "setting": "PGE2; 1 μM inhibitor + LPS", "value": 0.12, "unit": "ng/mL"},
      {"measurement": "PGE2 production reduction", "setting": "PGE2; at 0.5 μM as printed in the text", "value": 78, "unit": "%"},
      {"measurement": "PGE2 production reduction", "setting": "PGE2; at 1 μM as printed in the text", "value": 88, "unit": "%"},
      {"measurement": "COX-2 protein levels", "setting": "COX-2 [4]", "value": "unaffected"}
    ]}
  ]
}
